In patent publication US5625056A, “Derivatives of cyclic guanosine-3',5'-monophosphorothioate” (BIOLOG Life Science Institute, priority 1992, dated 1997):

Assays:
cAK = conditions: cited from earlier work
[1] = system: cAMP-dependent protein kinases type I (cAK I); conditions: Botelho et al. 1988; cited from earlier work
[2] = system: cAMP-dependent protein kinases type II (cAK II); conditions: Botelho et al. 1988; cited from earlier work
[3] = molecular target: T1, cGMP-dependent protein kinases (Bos taurus, UniProt P00516); assay: Inhibition/activation of cGMP-dependent protein kinase (cGK); assay type: biochemical, bovine
T1 construct: Isolation of cGK I from bovine lung; from tissue; host or cells: bovine lung
T1 sequence (P00516 2-671 limits assumed): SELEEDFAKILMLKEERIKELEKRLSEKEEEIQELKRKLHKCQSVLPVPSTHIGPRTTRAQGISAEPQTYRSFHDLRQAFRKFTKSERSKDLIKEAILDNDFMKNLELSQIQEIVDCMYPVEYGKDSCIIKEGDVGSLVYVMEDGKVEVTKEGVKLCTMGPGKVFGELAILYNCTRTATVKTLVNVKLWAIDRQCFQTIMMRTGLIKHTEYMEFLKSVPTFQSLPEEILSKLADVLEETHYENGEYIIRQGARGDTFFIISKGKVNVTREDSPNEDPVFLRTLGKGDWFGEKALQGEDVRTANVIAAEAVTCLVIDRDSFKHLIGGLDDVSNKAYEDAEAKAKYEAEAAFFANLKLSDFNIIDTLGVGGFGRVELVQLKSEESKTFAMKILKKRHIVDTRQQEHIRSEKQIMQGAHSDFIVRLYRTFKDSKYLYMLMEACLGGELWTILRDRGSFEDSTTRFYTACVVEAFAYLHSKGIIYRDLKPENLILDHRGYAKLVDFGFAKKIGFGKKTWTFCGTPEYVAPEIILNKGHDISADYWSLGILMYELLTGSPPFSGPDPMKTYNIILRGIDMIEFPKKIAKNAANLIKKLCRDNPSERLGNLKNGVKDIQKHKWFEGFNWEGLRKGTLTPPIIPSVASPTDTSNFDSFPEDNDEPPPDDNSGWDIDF
Experimental: (§1) Isolation of cGK I from bovine lung and of cAK II from bovine heart is performed as has been already published (Walter et al., J. Biol. Chem., 255, 3757-3762 (1980)). Protein kinase activity is determined according to the method of Roskoski (Methods Enzymol., 99, 3-6 (1983)). In vitro data on membranes of human thrombocytes are obtained as has already been described by Halbrugge et al. (Eur. J. Biochem., 185, 41-50, (1989)).

[4] = system: cGMP-dependent phosphorylation in intact human thrombocytes; assay: cGMP-dependent phosphorylation in intact human thrombocytes (in vivo); assay type: cell-based
Experimental: (§2) Compounds with extraordinary good membrane permeability are tested in vivo with intact human thrombocytes according to Halbrugge et al. CJ. Biol. Chem., 265, 3088-3093 (1990)).

physchem = conditions: reversed-phase hplc
[5] = system: cAMP-dependent phosphorylation of a 22- and a 240 kDa-band; assay: cAMP-dependent phosphorylation of 22 and 240 kDa bands in membranes of human thrombocytes; assay type: biochemical
Experimental: as §1, §2

[6] = system: phosphorylation of a 46/50 kDa-band in membranes of human thrombocytes; assay: cGMP-modulated phosphorylation of a 46/50 kDa band in membranes of human thrombocytes; assay type: biochemical
Experimental: as §1, §2

cAK II = molecular target: T2, cAK II (Bos taurus, UniProt P00515); assay: Activation of cAK II; assay type: biochemical, bovine; conditions: at high concentrations
T2 construct: of cAK II from bovine heart; from tissue; host or cells: bovine heart
T2 sequence (P00515 2-401 limits assumed): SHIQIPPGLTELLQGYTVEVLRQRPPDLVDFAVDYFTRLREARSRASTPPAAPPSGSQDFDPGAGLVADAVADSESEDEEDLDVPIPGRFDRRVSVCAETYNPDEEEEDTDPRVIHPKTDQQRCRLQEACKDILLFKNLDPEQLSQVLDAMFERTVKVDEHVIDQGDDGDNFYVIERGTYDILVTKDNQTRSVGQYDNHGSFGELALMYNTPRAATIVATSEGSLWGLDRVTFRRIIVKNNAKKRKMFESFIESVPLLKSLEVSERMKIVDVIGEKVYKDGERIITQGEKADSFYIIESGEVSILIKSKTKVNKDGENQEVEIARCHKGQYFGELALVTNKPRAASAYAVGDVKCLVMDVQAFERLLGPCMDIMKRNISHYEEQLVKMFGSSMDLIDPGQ
Experimental: as §1

cGK I = molecular target: T3, cGK I (Bos taurus, UniProt P00516); assay: Inhibition of isolated cGK I; assay type: biochemical, bovine
T3 construct: Isolation of cGK I from bovine lung; from tissue; host or cells: bovine lung
T3 sequence (P00516 1-671): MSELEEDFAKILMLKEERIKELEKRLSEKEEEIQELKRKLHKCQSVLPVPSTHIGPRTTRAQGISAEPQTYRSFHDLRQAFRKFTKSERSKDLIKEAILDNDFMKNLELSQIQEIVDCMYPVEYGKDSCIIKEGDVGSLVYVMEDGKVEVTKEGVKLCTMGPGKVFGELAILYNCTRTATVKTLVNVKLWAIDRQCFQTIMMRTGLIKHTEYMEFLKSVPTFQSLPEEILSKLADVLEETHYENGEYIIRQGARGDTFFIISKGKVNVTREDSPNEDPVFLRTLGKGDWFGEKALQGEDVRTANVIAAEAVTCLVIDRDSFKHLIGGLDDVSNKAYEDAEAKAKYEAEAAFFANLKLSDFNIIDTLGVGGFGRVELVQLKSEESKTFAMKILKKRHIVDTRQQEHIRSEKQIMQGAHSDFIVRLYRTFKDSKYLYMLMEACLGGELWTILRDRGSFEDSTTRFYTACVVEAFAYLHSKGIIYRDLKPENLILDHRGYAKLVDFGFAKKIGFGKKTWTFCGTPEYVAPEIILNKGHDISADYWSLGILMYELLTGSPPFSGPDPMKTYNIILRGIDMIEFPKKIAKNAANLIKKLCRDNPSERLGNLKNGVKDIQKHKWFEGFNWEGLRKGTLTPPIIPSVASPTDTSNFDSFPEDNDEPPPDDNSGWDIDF
Experimental: as §1

[7] = system: cGMP-inhibited phosphodieserases (cGI-PDE); assay: Inhibition of cGMP-inhibited phosphodiesterases (cGI-PDE); assay type: biochemical
[8] = Cell membrane permeability; assay type: in vitro ADME
[9] = reversed-phase HPLC; has been reported; cited from earlier work
[10] = molecular target: T1, cGMP-dependent protein kinases; conditions: background literature (Butt et al. 1990); cited from earlier work
[11] = system: cGMP signal transduction pathway; assay: Selective block of the cGMP signal transduction pathway; conditions: selectivity over cAMP-mediated effects
[12] = system: cGMP-dependent phosphorylation of three proteins of the masses 46, 50 and 130 kDa; assay: cGMP-dependent phosphorylation of three proteins of 46, 50 and 130 kDa
perfused aorta muscle = assay: SIN 1-stimulated relaxation in perfused aorta muscle

Nc1ncnc2c1ncn2[C@@H]1O[C@@H]2CO[P@@](O)(=S)O[C@H]2[C@H]1O [RP -cAMPS, adenosine-3',5'-monophosphorothioate]
cAMP antagonism (cAK; Botelho et al. 1988): antagonist of cAMP | inhibition of cAK I [1]: competitive inhibitor | inhibition of cAK II [2]: competitive inhibitor

Nc1nc2c(nc(Sc3ccc(Cl)cc3)n2[C@@H]2O[C@@H]3CO[P@](O)(=S)O[C@H]3[C@H]2O)c(=O)[nH]1 [SP -8-pCPT-cGMPS, Cyclic 8-(4-chlorophenylthio)-guanosine-3',5'-monophosphorothioate, SP -diastereomer]
activation of isolated cGK ([3]; isolated cGK): activator | cGMP-dependent (cGMP-mediated) phosphorylation [4]: activator | chromatographic logP (physchem): 2.84

Nc1nc2c(nc(Sc3ccc(Cl)cc3)n2[C@@H]2O[C@@H]3CO[P@@](O)(=S)O[C@H]3[C@H]2O)c(=O)[nH]1 [RP -8-pCPT-cGMPS, Cyclic 8-(4-chlorophenylthio)-guanosine-3',5'-monophosphorothioate, RP -diastereomer]
cAMP-dependent phosphorylation of a 22- and a 240 kDa-band [5]: not disturbed | cGMP-dependent (cGMP-mediated) phosphorylation [4]: inhibits the cGMP-dependent phosphorylation even in intact human thrombocytes | chromatographic logP (physchem): 2.82 | phosphorylation of a 46/50 kDa-band ([6]; membranes of human thrombocytes): inhibits the phosphorylation | agonism for cAK II (cAK II): weakly partial agonist | type of inhibition of isolated cGK I (cGK I; isolated cGK I): competitive inhibitor | Ki (cGK I; read-out: inhibition constant Ki): 700 nM | inhibition of cGI-PDE [7]: poor inhibitor | cell membrane permeability [8]: excellent cell membrane permeability

Nc1nc2c(ncn2[C@@H]2O[C@@H]3COP(=O)(O)O[C@H]3[C@H]2O)c(=O)[nH]1 [cGMP, guanosine-3',5'-monophosphate, reference compound]
chromatographic logP (physchem): 0.77 | log KW [9]: 0.85

O=c1c2ncn([C@@H]3O[C@@H]4CO[P@@](O)(=S)O[C@H]4[C@H]3O)c2[nH]c2nc(-c3ccccc3)cn12 [RP -PET-cGMPS, Cyclic β-phenyl-1,N^2-ethenoguanosine-3',5'-monophosphorothioate, RP -diastereomer]
chromatographic logP (physchem): 2.81

Nc1nc2c(ncn2[C@@H]2O[C@@H]3CO[P@@](O)(=S)O[C@H]3[C@H]2O)c(=O)[nH]1 [RP -cGMPS, RP -Guanosine-3',5'-monophosphorothioate]
inhibition/agonism of cAK (cAK; background literature): inhibits cAK as well | inhibitory properties / specificity for cGK [10]: lacks the required specificity for cGMP-dependent protein kinase (cGK)

O=c1c2nc(Br)n([C@@H]3O[C@@H]4CO[P@@](O)(=S)O[C@H]4[C@H]3O)c2nc2[nH]c(-c3ccccc3)cn12 [RP -8-Br-PET-cGMPS, Cyclic β-phenyl-1,N^2-etheno-8-bromoguanosine-3',5'-monophosphorothioate, RP -diastereomer]
type of inhibition of cGMP-dependent protein kinases [3]: competitive inhibitor | Ki ([3]; cGMP-dependent protein kinases, competitive inhibitor, read-out: inhibition constant Ki): 30 nM | chromatographic logP (physchem): 3.22 | block of cGMP signal transduction pathway [11]: blocks selectively the cGMP signal transduction pathway without affecting cAMP-mediated effects | cGMP-dependent phosphorylation of three proteins [12]: inhibited | effectivity at thrombocyte membranes, factor over RP -8-pCPT-cGMPS ([6]; thrombocyte membranes, relative to RP -8-pCPT-cGMPS): 5-10 | SIN 1-stimulated relaxation (perfused aorta muscle): inhibited

O=c1c2ncn([C@@H]3O[C@@H]4CO[P@](O)(=S)O[C@H]4[C@H]3O)c2[nH]c2nc(-c3ccccc3)cn12 [SP -PET-cGMPS, Cyclic β-phenyl-1,N^2-ethenoguanosine-3',5'-monophosphorothioate, SP -diastereomer]
chromatographic logP (physchem): 2.83
